# Assay results published in PMC11352945, “Anticancer Activity of Benzo[a]phenoxazine Compounds Promoting Lysosomal Dysfunction” (Cells, 2024).
# Tested on: MCF7 cells
# Assay: Wound healing assay, MCF7
# Type: cell-based, human
# Conditions: MCF7, IC50 and 2 × IC50, 12 h (controls approximately 12.5%)
# Experimental: RKO and MCF7 cells were seeded in 12-well plates at densities of 5 × 10^5 cells/mL and 4.5 × 10^5 cells/mL, respectively. After 24 h, a wound was created by scraping the cell layer using a 1 mm pipette tip. The cells were treated with C9, A36, and A42 at IC50 and 2 × IC50 concentrations or 0.1% DMSO (vehicle). Untreated cells were used as controls. The wound regions were photographed at 0 and 12 h, and migration was assessed using the Image J software. The relative migration was calculated in relation to the untreated controls.
smiles,measurement,value
CCCNc1cc2oc3cc(=NCC)c(C)cc-3nc2c2ccccc12 [C9],Effect on cell migration (wound closure),more pronounced effect
